Experimental data taken from patent US20100035926A1, “PYRAZOLE DERIVATIVES AS NON-STEROIDAL GLUCOCORTICOID RECEPTOR LIGANDS” (priority 2006, published 2010).
Where two headings read alike, the source gives them in different places.

Key:
Progesterone Receptor = biological target: T1, Progesterone Receptor (Homo sapiens, UniProt P06401); test: Assay for Progesterone Receptor Agonist Activity (CV-1 cells, PRb-BacMam, MMTV-BacMam); format: cell-based; conditions: at least once in this assay, read-out: progesterone receptor agonist pEC50 (converted)
T1 construct: expressed in transfected cells; host or cells: CV-1 cells transduced with PRb-BacMam and MMTV-BacMam
T1 sequence (P06401 1-933): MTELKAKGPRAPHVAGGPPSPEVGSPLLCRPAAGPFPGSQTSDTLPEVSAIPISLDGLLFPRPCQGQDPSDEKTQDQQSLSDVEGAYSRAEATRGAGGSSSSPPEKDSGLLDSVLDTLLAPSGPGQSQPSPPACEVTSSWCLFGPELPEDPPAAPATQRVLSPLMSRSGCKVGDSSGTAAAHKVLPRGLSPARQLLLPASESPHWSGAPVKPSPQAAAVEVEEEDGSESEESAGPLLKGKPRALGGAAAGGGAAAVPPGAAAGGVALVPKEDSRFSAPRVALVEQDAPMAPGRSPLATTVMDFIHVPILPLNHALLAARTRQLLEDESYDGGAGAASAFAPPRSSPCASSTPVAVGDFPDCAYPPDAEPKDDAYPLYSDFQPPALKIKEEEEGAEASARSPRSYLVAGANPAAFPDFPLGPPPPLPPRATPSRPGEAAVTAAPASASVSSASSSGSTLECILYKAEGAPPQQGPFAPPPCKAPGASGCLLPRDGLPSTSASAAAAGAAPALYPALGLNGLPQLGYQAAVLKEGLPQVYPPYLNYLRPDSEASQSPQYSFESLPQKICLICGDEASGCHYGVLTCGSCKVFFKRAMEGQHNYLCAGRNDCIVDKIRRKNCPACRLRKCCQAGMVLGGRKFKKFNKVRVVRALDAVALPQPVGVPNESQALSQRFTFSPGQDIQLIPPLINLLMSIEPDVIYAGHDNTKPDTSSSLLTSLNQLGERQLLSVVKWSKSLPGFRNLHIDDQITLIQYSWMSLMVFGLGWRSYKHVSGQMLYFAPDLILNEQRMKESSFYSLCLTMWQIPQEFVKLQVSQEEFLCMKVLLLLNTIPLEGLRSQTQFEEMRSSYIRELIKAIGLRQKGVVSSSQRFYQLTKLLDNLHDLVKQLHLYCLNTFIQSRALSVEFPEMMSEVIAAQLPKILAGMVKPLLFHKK
Experimental: A T225 flask of CV-1 cells at a density of 80% confluency was washed with PBS, detached from the flask using 0.25% trypsin and counted using a Sysmex KX-21N. Cells were diluted in DMEM containing 10% Hyclone, 2 mM […] and 1% Pen/Strep at 140 cells/μl and transduced with 10% PRb-BacMam and 10% MMTV-BacMam. […] of suspension cells were dispensed to each well of white Nunc 384-well plates, containing compounds at the required concentration. After 24 hr 10 μl of Steadylite were added to each well of the plates. Plates were incubated in the dark for 10 min before reading them on a Viewlux reader. Dose response curves were constructed from which pEC50 values were estimated.

glucocorticoid receptor = biological target: T2, glucocorticoid receptor (Homo sapiens, UniProt P04150); test: Glucocorticoid Receptor Binding Assay (fluorescence polarisation, displacement of Alexa 555 labelled dexamethasone derivative); conditions: at least once in this assay; read-out: glucocorticoid binding pIC50 (converted)
T2 construct: a partially purified full length glucocorticoid receptor
T2 sequence (P04150 1-777): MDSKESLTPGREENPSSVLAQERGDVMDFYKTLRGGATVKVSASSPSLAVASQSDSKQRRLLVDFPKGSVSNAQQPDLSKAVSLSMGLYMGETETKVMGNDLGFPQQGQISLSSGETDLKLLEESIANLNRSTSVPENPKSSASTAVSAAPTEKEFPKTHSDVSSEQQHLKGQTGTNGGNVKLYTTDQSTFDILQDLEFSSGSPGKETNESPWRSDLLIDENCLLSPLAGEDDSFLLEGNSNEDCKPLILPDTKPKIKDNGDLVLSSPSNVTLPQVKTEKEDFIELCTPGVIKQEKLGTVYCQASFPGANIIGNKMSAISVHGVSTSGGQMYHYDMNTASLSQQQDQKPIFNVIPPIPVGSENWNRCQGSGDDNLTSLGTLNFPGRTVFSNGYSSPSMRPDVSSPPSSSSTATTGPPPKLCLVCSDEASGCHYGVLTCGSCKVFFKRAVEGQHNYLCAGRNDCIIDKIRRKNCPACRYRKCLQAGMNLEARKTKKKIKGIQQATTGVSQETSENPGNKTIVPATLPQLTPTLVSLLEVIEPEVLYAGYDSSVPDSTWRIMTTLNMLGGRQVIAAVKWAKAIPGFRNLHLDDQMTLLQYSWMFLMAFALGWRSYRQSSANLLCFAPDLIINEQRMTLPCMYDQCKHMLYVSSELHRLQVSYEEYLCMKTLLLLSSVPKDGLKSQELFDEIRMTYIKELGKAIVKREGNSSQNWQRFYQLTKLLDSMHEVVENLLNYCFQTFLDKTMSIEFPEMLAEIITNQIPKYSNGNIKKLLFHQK
Summary of the method: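 Partially purified full-length GR incubated with test compound and fluorescent dexamethasone plus GR-stabilising buffer components, 2 hr at room temperature in the dark. Binding scored as displacement of tracer, read as decrease in fluorescence polarisation.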

GR [1] = biological target: T3, GR (Homo sapiens, UniProt P04150); test: GR Agonist Assay - MMTV Assay (A549 MMTV cells, renilla luciferase reporter); format: cell-based; conditions: 6 h, agonists, read-out: average maximum asymptote in the MMTV agonist assay
T3 construct: endogenous in cells; host or cells: A549 (human lung carcinoma, ECACC No. 86012804), stably transfected with reporter plasmids only
T3 sequence (P04150 1-777): T2 sequence (P04150 1-777)
Summary of the method: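 Stably transfected A549 MMTV cells carry a GR-driven luciferase reporter. Cells at 0.1×10^6/ml in DMEM with 10% FCS and 25 mM HEPES were added to wells containing compound. After detection reagent, plates were held about 15 mins at room temperature and luminescence was read.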

GR [2] = biological target: T3, GR; test: GR Functional Assay - NFκB Assay (A549 SPAP cells, TNFα stimulated); format: cell-based; conditions: for Emax: agonists, read-out: average maximum asymptote in the NFkB assay
Summary of the method: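 Stably transfected A549 SPAP cells at 0.16×10^6/ml in DMEM with 10% FCS were added to compound and stimulated with TNFα to drive NFκB-dependent SPAP expression. After 1 hr equilibration at room temperature, SPAP was read colorimetrically with pNPP in diethanolamine buffer, pH 9.8.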

[3] = at least once in the NFkB assay, A549 SPAP cells, read-out: pIC50 in the NFkB assay (converted)
[4] = at least once, examples listed as agonists in NFkB and MMTV assays, read-out: potency pIC50 in the NFKB assay (converted)

| EC50 (Progesterone Receptor) | IC50 (glucocorticoid receptor) | Emax (GR [1]) | Emax (GR [2]; A549 SPAP cells) | IC50 (GR [2]; [3]) | IC50 (GR [2]; [4]) | SMILES |
| --- | --- | --- | --- | --- | --- | --- |
| > 1000 nM | < 1000 nM | ≥ 40% | ≥ 40% | < 1000 nM | < 316 nM | CCN(CC(O)(CNC(=O)c1cnn(-c2ccc(F)cc2)c1N)C(F)(F)F)C(=O)c1ccccc1C(F)(F)F (racemic) [Example 9 (racemic), 5-amino-N-{2-[(ethyl{[2-(trifluoromethyl)phenyl]carbonyl}amino)methyl]-3,3,3-trifluoro-2-hydroxypropyl}-1-(4-fluorophenyl)-1H-pyrazole-4-carboxamide] |
| > 1000 nM | < 1000 nM | ≥ 40% | ≥ 40% | < 1000 nM | < 316 nM | CCN(CC(O)(CNC(=O)c1cnn(-c2ccc(F)cc2)c1N)C(F)(F)F)C(=O)c1ccccc1 (racemic) [Example 14 (racemic), 5-amino-N-(2-{[ethyl(phenylcar-bonyl)amino]methyl}-3,3,3-trifluoro-2-hydroxypropyl)-1-(4-fluorophenyl)-1H-pyrazole-4-carboxamide] |
| > 1000 nM | < 1000 nM | ≥ 40% | ≥ 40% | < 1000 nM | < 316 nM | Nc1c(C(=O)NCC(O)(CN(CCF)C(=O)c2ccccc2F)C(F)(F)F)cnn1-c1ccc(F)cc1 (single isomer, unassigned) [Example 2 Enantiomer 1, 5-Amino-1-(4-fluorophenyl)-N-[3,3,3-trifluoro-2-([(2-fluoroethyl)[(2-fluorophenyl)carbonyl]amino]methyl)-2-hydroxypropyl]-1H-pyrazole-4-carboxamide] |
| > 1000 nM | < 1000 nM | ≥ 40% | ≥ 40% | < 1000 nM | < 316 nM | CCN(CC(O)(CNC(=O)c1cnn(-c2ccc(F)cc2)c1N)C(F)(F)F)C(=O)c1cccc(F)c1F (single isomer, unassigned) [Example 5 Enantiomer 1, 5-Amino-N-(2-{[[(2,3-difluorophenyl)carbonyl](ethyl)amino]methyl}-3,3,3-trifluoro-2-hydroxypropyl)-1-(4-fluorophenyl)-1H-pyrazole-4-carboxamide] |
| > 1000 nM | < 1000 nM | ≥ 40% | ≥ 40% | < 1000 nM | < 316 nM | CCN(CC(O)(CNC(=O)c1cnn(-c2ccc(F)cc2)c1N)C(F)(F)F)C(=O)c1cccc2cccnc12 (single isomer, unassigned) [Example 8 Enantiomer 1, N-{2-[({[5-amino-1-(4-fluorophenyl)-1H-pyrazol-4-yl]carbonyl}amino)methyl]-3,3,3-trifluoro-2-hydroxypropyl}-N-ethyl-8-quinolinecarboxamide] |
| > 1000 nM | < 1000 nM | ≥ 40% | ≥ 40% | < 1000 nM | < 316 nM | CCN(CC(O)(CNC(=O)c1cnn(-c2ccc(F)cc2)c1N)C(F)(F)F)C(=O)c1ccccc1C(F)(F)F (single isomer, unassigned) [Example 9 Enantiomer 1, 5-amino-N-{2-[(ethyl{[2-(trifluoromethyl)phenyl]carbonyl}amino)methyl]-3,3,3-trifluoro-2-hydroxypropyl}-1-(4-fluorophenyl)-1H-pyrazole-4-carboxamide] |

The remaining lines, values behind:

| SMILES | EC50 (Progesterone Receptor) | IC50 (glucocorticoid receptor) | Emax (GR [1]) | Emax (GR [2]; A549 SPAP cells) | IC50 (GR [2]; [3]) | IC50 (GR [2]; [4]) |
| --- | --- | --- | --- | --- | --- | --- |
| Nc1c(C(=O)NCC(O)(CN(CCF)C(=O)c2ccccc2Cl)C(F)(F)F)cnn1-c1ccc(F)cc1 (racemic) [Example 15 (racemic), 5-amino-N-(2-{[[(2-chlorophenyl)car-bonyl](2-fluoroethyl)amino]methyl}-3,3,3-trifluoro-2-hydroxypropyl)-1-(4-fluorophenyl)-1H-pyrazole-4-carboxamide] | > 1000 nM | < 1000 nM | ≥ 40% | ≥ 40% | < 1000 nM | < 316 nM |
| CCN(CC(O)(CNC(=O)c1cnn(-c2ccccc2)c1N)C(F)(F)F)C(=O)c1ccccc1F (racemic) [Example 45 (racemic), 5-amino-N-[2-({ethyl[(2-fluorophenyl)car-bonyl]amino}methyl)-3,3,3-trifluoro-2-hydroxypropyl]-1-phenyl-1H-pyrazole-4-carboxamide] | > 1000 nM | < 1000 nM | ≥ 40% | ≥ 40% | < 1000 nM | < 316 nM |
| CCN(CC(O)(CNC(=O)c1cnn(-c2ccccc2)c1N)C(F)(F)F)C(=O)c1ccccc1Cl (racemic) [Example 46 (racemic), 5-amino-N-(2-{[[(2-chlorophenyl)car-bonyl](ethyl)amino]methyl}-3,3,3-trifluoro-2-hydroxypropyl)-1-phenyl-1H-pyrazole-4-carboxamide] | > 1000 nM | < 1000 nM | ≥ 40% | ≥ 40% | < 1000 nM | < 316 nM |
| CN(CC(O)(CNC(=O)c1cnn(-c2ccc(F)cc2)c1N)C(F)(F)F)C(=O)c1ccccc1Cl (single isomer, unassigned) [Example 7 Enantiomer 1, 5-amino-N-(2-{[[(2-chlorophenyl)car-bonyl](methyl)amino]methyl}-3,3,3-trifluoro-2-hydroxypropyl)-1-(4-fluorophenyl)-1H-pyrazole-4-carboxamide] | > 1000 nM | < 1000 nM | ≥ 40% | ≥ 40% | < 1000 nM | < 316 nM |
| CCN(CC(O)(CNC(=O)c1cnn(-c2ccccc2)c1N)C(F)(F)F)C(=O)c1ccccc1F (single isomer, unassigned) [Example 45 Enantiomer 1, 5-amino-N-[2-({ethyl[(2-fluorophenyl)car-bonyl]amino}methyl)-3,3,3-trifluoro-2-hydroxypropyl]-1-phenyl-1H-pyrazole-4-carboxamide] | > 1000 nM | < 1000 nM | ≥ 40% | ≥ 40% | < 1000 nM | < 316 nM |
